Data reported in patent US11596652B2, “Early apoptotic cells for use in treating sepsis” (ENLIVEX THERAPEUTICS LTD., priority 2015, dated 2023).
Values joined by “and” are separate entries in the source; they are usually repeats but may differ in a detail not shown here. Equal entries are not always repeated.

Tests used:
[1] = system: CLP-induced sepsis; experiment: Cecal ligation puncture (CLP) mouse model for sepsis: survival, weight and MSS clinical score; assay type: in vivo
Source text: The cecal ligation puncture (CLP) model has been proposed to more closely replicate the nature and course of clinical sepsis in humans, as compared to other models, and is considered by many researchers as the gold-standard animal model of sepsis. The CLP model involves the ligation of the cecum, usually below the ileocecal junction (to prevent bowel obstruction), and at least one centimeter above the distal end of the cecum, otherwise the sepsis induced is very mild. The length of ligated cecum, defined as the distance from the distal end of the cecum to the ligation point, determines the severity of the sepsis induced. Following ligation, the cecum is perforated, and this step too can be adjusted to modulate the severity of the sepsis ensuing. The perforation of the cecum is followed by the release of fecal material into the peritoneal cavity to induce a polymicrobial infection, which results in an exacerbated immune response. The benefits of the CLP model are its reproducibility and potential to alter the severity of sepsis by controlling needle size, number of cecal punctures, and antibiotics utilization.
The study reported here summarizes the effect of apoptotic cells administered 4 hours after the end of CLP on the development of CLP-induced sepsis in a female C57BL/6 mouse model.
C57BL/6 female mice, 10-13 wk old, were purchased from ENVIGO (Israel). Mice were kept in an SPF animal facility in compliance with institutional IACUC guidelines. Mice were weighed daily and monitored 2-3 times a day for clinical signs and determination of the murine sepsis score (MSS) clinical score (according to Shrum, B., Anantha, R. V., Xu, S. X., Donnelly, M., Haeryfar, S. M. M., McCormick, J. K., and Mele, T. (2014). A robust scoring system to evaluate sepsis severity in an animal model. BMC Res. Notes 7, 1-11). The endpoint was defined as total score of 15 or maximum score in one of the categories in the table.
The procedure was performed as briefly described below: Cecal Ligation and Puncture (CLP)—Experimental method. Briefly, the mice were operated under isoflurane anesthesia machine. Mice were anesthetized by 4% isoflurane in the chamber for about 1 minute, following anesthesia mice were transferred to the operation table and connected to the isoflurane nuzzle with 2% isoflurane. Mice were administered analgesics by sub-cutaneous (S.C.) injection of tramadol 5 mg/kg in 0.1 ml of pre-warmed 0.9% saline solution. After opening the abdomen of the mouse by a midline incision, the cecum was exposed. The cecum was ligated 75% above its distal end with a 4-0 silk suture. Following ligation, the cecum was perforated twice with a 19-gauge needle, using the through-and-through technique (introducing a needle through the cecum). […]

[2] = system: serum cytokines/chemokines; experiment: CLP model: serum cytokines/chemokines (Luminex); assay type: in vivo, mouse; conditions: 24 h and 48 h post-CLP
Description: At the indicated times (pre-CLP, 24 h, 48 h, and 72 h post-CLP) ˜500 μl blood was collected in a pre-labeled Eppendorf tube and left for 30 min to allow clotting. The samples were centrifuged at 1800 g (3000 rpm) for 10 min at 4° C., […]. Serum was transferred to a new pre-labeled Eppendorf tube and kept at 4° C. Excess serum was stored at −80° C. Cytokine/chemokine measurement was performed using the Luminex MAGPIX system, and analysis was performed with Milliplex software.
Cytokine/chemokine measurement was performed using the Luminex MAGPIX system, and analysis was performed with Milliplex software. NGAL and Cystatin C were tested by Luminex Multiplex kit (Millipore, MKI2MAG-P4k). All reagents were provided with the kit, and all reagents were prepared according to the manufacturers' protocols. The assays were performed in 96-well plates according to the protocol provided. Plate reading was performed with the Luminex MAGPIX system (Luminex Corp.) and analyzed using Milliplex software (Millipore). […] The raw data was measured as mean fluorescence intensity (MFI) and the concentration of each analyte for each sample was calculated using a 4- or 5-parameter logistic fit curve generated for each analyte from the 7 standards. The lower limit of quantification (LLOQ) was determined using the lowest standard that was at least 3 times above background. […]

[3] = system: CLP-induced sepsis; experiment: CLP model: organ dysfunction analysis 24 hours post CLP (blood gas, hematology, biochemistry, lung weight, NGAL, cystatin C, C3a, C5a); assay type: in vivo, mouse; conditions: CLP + Ertapenem mice
Description: 22-24 h after CLP, mice were weighed, assigned an MSS clinical score and sacrificed for the evaluation of organ dysfunction. Mice were bled through the retro-orbital sinus (venous blood). Naïve mice were bled under isoflurane analgesia; CLP mice were bled without analgesia due to the concern of death. 100 μl blood was collected using heparin-coated capillary tube (Paul Marienfeld, K G, Lauda-Knigshofen, Germany) and immediately tested using STAT profile prime machine (Nova Biomedical, Waltham, Mass., USA). […] was collected into EDTA tubes (MiniCollect, Greiner Bio-One, […], Austria), tubes were rotated to prevent blood clotting and kept at 4° C. Hematology analysis was performed by AML laboratories (Herzliya, Israel). About 500 μl blood was collected to a pre-labeled Eppendorf tube and left for -30 min to allow clotting. The samples were centrifuged at 1800 g (3000 rpm) for 10 min at 4° C., 200 μl serum was transferred to a new pre-labeled Eppendorf tube and kept at 4° C. Excess serum was stored in -80° C. Biochemistry analysis was performed by AML laboratories (Herzliya, Israel). […] Blood was collected to pre-labeled Eppendorf tubes and left for -30 min to allow clotting. Tubes were centrifuged at 1800 g (3000 rpm) for 10 min at 4° C. Serum was transferred to new pre-labeled Eppendorf tubes and stored at -80° C. for Luminex (NGAL and Cystatin C) and ELISA (C3a and C5a) evaluation. Cytokine/chemokine measurement was performed using the Luminex MAGPIX system, and analysis was performed with Milliplex software. NGAL and Cystatin C were tested by Luminex Multiplex kit (Millipore, […]). All reagents were provided with the kit, and all reagents were prepared according to the manufacturers' protocols. The assays were performed in 96-well plates according to the protocol provided. Plate reading was performed with the Luminex MAGPIX system (Luminex Corp.) and analyzed using Milliplex software (Millipore). […] The raw data was measured as mean fluorescence intensity (MFI) and the concentration of each analyte for each sample was calculated using a 4- or 5-parameter logistic fit curve generated for each analyte from the 7 standards. […] The calculation of the LLOQ was performed by subtracting the MFI of the background (diluent) from the MFI of the lowest standard concentration and back-calculating the concentration from the standard curve. Complement components were tested by sandwich ELISA kits: […]038) and C5a (EA100633, OriGene, Rockville, Md., USA). All reagents were provided with the kits and prepared according to the manufacturers' protocols. Assays were performed in 96-well plate according to the protocols provided. OD plate reading was performed with the Infinite F50 (TECAN, Mainnedorf, Switzerland) and analyzed using Magellan software (TECAN). The raw data was measured as 450 nm optical density (OD) and the concentration was calculated using a linear standard curve generated from 6-7 standards. The lower limit of quantification (LLOQ) was determined using the lowest standard. The calculation of the LLOQ was performed by subtracting the OD of the background (diluent) from the OD of the lowest standard concentration and back-calculating the concentration from the standard curve. […] N=40) was assigned with a clinical score, weighed, and blood samples were drawn from the retro-orbital sinus for further analyses. Mice were sacrificed and their lungs were harvested and weighed. To elucidate the effects of CLP on organ dysfunction and its correlation with the MSS clinical score, blood was tested for multiple parameters of organ dysfunction relating to five major systems: cardiovascular, respiratory, renal, hepatic, and hematological, as well as complement and several metabolites (Tables 24A and 24B).

[4] = system: Raji cells; experiment: Flow cytometry of CD20+ Raji tumor cells in spleen, bone marrow and liver of leukemic mice; assay type: in vivo, mouse; conditions: for CD20+, Bone marrow / CD20+, Liver / CD20+, Spleen: In Vivo Experiment 023, individual mice
Description: Mouse spleen, liver, and bone marrow were collected from sacrificed mice (following deterioration of clinical signs, as defined above) and analyzed by flow-cytometry (FACSCalibur, BD, Franklin Lakes, N.J., USA) for the presence of the Raji tumor (anti-CD20).
Upon sacrifice, following the deterioration of clinical signs as described above, organs of interest were collected for analysis, namely the liver, spleen, and bone-marrow. Cells of these target organs were analyzed by flow cytometry for the presence of human tumor cells (Raji cells are positive for CD20).
Liver, spleen, and bone marrow cells were collected and analyzed by flow cytometry (FACSCalibur, BD) for the presence of human CD20-FITC (Biolegend, Cat. #302206); mIgG1-FITC (Biolegend, Cat. #400110).
Mouse spleen, liver, and bone marrow cells were collected from mice who were sacrificed following clinical deterioration, as defined in the methods) and analyzed by flow cytometry (FACSCalibur, BD) for the presence of human CD20 (FITC).
Expression (%) of CD20 tumor cells in the spleen, bone marrow, and liver, as determine by flow cytometry. Mouse spleen, liver, and bone marrow were collected from sacrificed mice (following clinical deterioration, as defined in methods) and analyzed by flow cytometry (FACSCalibur, BD) for the presence of human CD20 (FITC).

[5] = CLP mice given ertapenem, Allocetra-OTS 20×10^6 cells IV 4 h after CLP

## C[C@@H](O)[C@H]1C(=O)N2C(C(=O)O)=C(S[C@@H]3CN[C@H](C(=O)Nc4cccc(C(=O)O)c4)C3)[C@H](C)[C@H]12 [Ertapenem]
[1]; CLP mice given ertapenem
  final clinical score (MSS plateau value): 14.37
[1]; [5]
  median survival: 48 h
  mortality: 93%
[1]; Ertapenem with vehicle control, n=15
  survival rate: 6.6%
[2]
  cytokine/chemokine release after sepsis induction: no beneficial effects
[3]
  Basophils, median: 0 10^3/μl
  C3a, median: 4835 ng/mL
  C5a, median: 1809 ng/mL
  Chloride, median: 121.1 mmol/L
  Cholesterol, median: 108 mg/dL
  Eosinophils, median: 0 10^3/μl
  Glucose, median: 59.5 mg/dL
  HCT, median: 40.9%
  Hemoglobin, median: 12.4 g/dL
  Lactate, median: 13 mg/dL
  Lymphocytes, median: 1.55 10^3/μl
  MCH, median: 14.9 pg
  MCHC, median: 31.2 g/dL
  MCV, median: 47.9 fL
  Monocytes, median: 0 10^3/μl
  Neutrophils, median: 0.31 10^3/μl
  Phosphorus, median: 10.2 mg/dL
  Platelets, median: 99 10^3/μL
  Potassium, median: 6.6 mmol/L
  RBC, median: 8.36 10^6/μL
  Sodium, median: 154.1 mmol/L
  WBC, median: 1.94 10^3/μL

## Rituximab [RtX]
[4]; RtX 2 mg/kg
  CD20+, Bone marrow: 0.8% and 3.1% and 3%
  CD20+, Liver: 2.1% and 1.2% and 0.4%
  CD20+, Spleen: 0% (2×) and 0.7%
[4]; RtX 5 mg/kg
  CD20+, Bone marrow: 2.1% and 0.5% and 4.3% and 2.2% and 2.6%
  CD20+, Liver: 1% and 7.3% and 1.4% and 0.9% and 5.7%
  CD20+, Spleen: 0% (3×) and 0.1% (2×)
[4]; rtx 2 mg/Kg
  CD20+ average tumor cell population, Bone Marrow: 2.3 ± 1.3%
  CD20+ average tumor cell population, Liver: 1.2 ± 0.8%
  CD20+ average tumor cell population, Spleen: 0.2 ± 0.4%
[4]; rtx 5 mg/Kg
  CD20+ average tumor cell population, Bone Marrow: 1.7 ± 1.5%
  CD20+ average tumor cell population, Liver: 3 ± 2.5%
  CD20+ average tumor cell population, Spleen: 0%
